Columns and labels:
[1] = Dynamic Vapour Sorption (DVS) moisture sorption isotherm; format: physicochemical; settings: for total uptake of water vapours: DVS, 25° C., relative humidity 0% to 95% in steps of 5%, 1 h per step
Method: Moisture sorption isotherms were measured using a DVS-1 system of Surface Measurement Systems (London, UK). Differences in moisture uptake of various forms of a solid material indicate differences in the relative stabilities of the various solid forms for increasing relative humidity. The experiment was carried out at a constant temperature of 25° C.
A sample of about 11.5 mg of form TDFA 2:1 was spread in the DVS pan. The sample was dried at 0% RH for 7 h. Subsequently the relative humidity of the chamber was increased in steps of 5% units from 0% to 95% in order to monitor the sorption of water vapours. The samples remained in each of the steps for 1 h. Following, desorption was monitored by decreasing the relative humidity to 0% in steps of 5% units and remaining at each step for 1 h. The total uptake of water vapours was about 0.8%, which is line with the industry standard for hygroscopicity. In a similar DVS experiment using the starting material as purchased, the total vapour intake was about 4%, which is undesirable in formulation and requires additional measures.

[2] = Comparative pharmacokinetic study of TDFA 2:1 and ULT 1 (plasma tenofovir by LC-MS-MS); format: in vivo, Male wistar rats; settings: rats, one capsule of approximately 15 mg by oral gavage; compared with fumarate salt form ULT 1; FIG. 5
Source text: The plasma samples were further worked up for analysis by LC-MS-MS for their content of tenofovir. […] The concentration of tenofovir (the active metabolite of tenofovir DF) was quantified in each sample by means of LC-MS-MS against a calibration curve. From the PK data it is concluded that the hemifumarate co-crystal of tenofovir disoproxil, TDFA 2:1 is bioequivalent to the fumarate salt of tenofovir disoproxil form ULT 1, which is a commercially available fumarate salt of tenofovir disoproxil.

[3] = summary statement, versus Gilead 1

Compound	total uptake of water vapours [1]	changes in the structure by XRPD at the end of the DVS experiment ([1]; solid material after the sorption-desorption cycle, FIG. 4)	hygroscopicity compared with known crystalline form of tenofovir DF (Gilead 1) [1, 3]	stability compared with known crystalline form of tenofovir DF (Gilead 1) [1, 3]	bioequivalence from PK data (concentration of tenofovir in plasma) [2]
CC(C)OC(=O)OCOP(=O)(CO[C@H](C)Cn1cnc2c(N)ncnc21)OCOC(=O)OC(C)C.O=C(O)/C=C/C(=O)O [starting material, 9-[(R)-2-[[bis[[(isopropoxycarbonyl)oxy]methoxy]phosphinyl]-methoxy]propyl]adenine fumarate (1:1), reference compound]	about 4%				
co-crystal of tenofovir disoproxil and fumaric acid in a 2:1 molar ratio [TDFA 2:1]	about 0.8%	no any changes in the structure	less hygroscopic	more stable	bioequivalent

Source: patent US20090176983A1, “Tenofovir Disoproxil Hemi-Fumaric Acid Co-Crystal” (ULTIMORPHIX TECHNOLOGIES B.V., priority 2007, published 2009)
